Data published in article PMC5432571 (Frontiers in Molecular Neuroscience, 2017).

Key:
[1] = test system: α2 GlyRs; conditions: read-out: mean value of EC50 for glycine; ref Maleeva et al., 2015; cited from earlier work
[2] = target: T1, α2 GlyR (Homo sapiens, UniProt P23416); assay: Whole-cell patch-clamp of glycine-induced currents, α2 GlyR expressed in CHO cells; type: cell-based; conditions: PTX 20 μM; glycine 30 μM; Vhold −30 mV
T1 construct: expressed in transfected cells; host or cells: CHO cells
T1 sequence (P23416 28-452 isoform P23416-2 limits assumed): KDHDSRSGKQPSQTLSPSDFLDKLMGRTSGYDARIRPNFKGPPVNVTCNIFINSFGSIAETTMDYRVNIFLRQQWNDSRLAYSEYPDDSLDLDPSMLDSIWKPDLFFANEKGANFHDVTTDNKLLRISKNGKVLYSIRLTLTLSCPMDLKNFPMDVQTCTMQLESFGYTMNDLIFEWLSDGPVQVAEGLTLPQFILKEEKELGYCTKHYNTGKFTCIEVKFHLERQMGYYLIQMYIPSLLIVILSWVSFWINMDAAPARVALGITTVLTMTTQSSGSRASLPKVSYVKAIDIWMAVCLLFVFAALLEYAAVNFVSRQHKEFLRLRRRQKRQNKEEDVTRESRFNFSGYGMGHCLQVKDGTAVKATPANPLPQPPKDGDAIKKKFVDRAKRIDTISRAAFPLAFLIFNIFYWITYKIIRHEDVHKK
Description: (§1) The experiments were carried out on cultured Chinese hamster ovary (CHO) cells obtained from the American Type Tissue Culture Collection (ATCC, Molsheim, France) that were maintained in culture conditions as previously described (Mukhtarov et al., [2013]; Maleeva et al., [2015]).
(§2) One day before transfection, cells were plated on the cover slips (12 mm in diameter) and placed inside 35-mm cell culture dishes with 2 ml of medium. Transfection was performed using the Lipofectamine 3000 protocol (Life Technology, USA). To facilitate identification of transfected cells a green fluorescent protein (GFP) was added to the transfection mixture. For expression of functional heteromeric receptors, cells were simultaneously transfected with cDNAs of α and β subunits in the ratio 1:10. Three hours after the initial exposure of cells to the cDNAs the culture medium was replaced with that containing strychnine (1 μM), which prevents spontaneous activation of GlyRs. Electrophysiological recordings were performed in the fluorescent cells 24–72 h after transfection.
(§3) Whole-cell and outside-out recordings were performed at room temperature (20–25°C) using an EPC-9 amplifier (HEKA Elektronik, Germany). Cells were continuously superfused with external solution containing (mM): NaCl 140, CaCl2 2, KCl 2.8, MgCl2 4, HEPES 20, glucose 10; pH 7.4; 320–330 mOsm. Intracellular solution used for filling recording patch pipettes contained (mM): CsCl 140, CaCl2 6, MgCl2 2, MgATP 2, NaGTP 0.4, HEPES/CsOH 10, BAPTA (tetrapotassium salt) 2; pH 7.3; 290 mOsm. Two different protocols of solutions application were used in this study. […] A “ramp protocol” implies the gradual change of Vhold alternately from −80 to +80 mV and from +80 to −80 mV during 1 s, Vhold was fixed at −80 or +80 mV at the beginning and at the end of the ramp for 500 ms (Figure 2B).
(§4) Recording pipettes were pulled from borosilicate glass capillaries (Harvard Apparatus Ltd, USA) and had resistances of 5–10 MOhm. For the rapid replacement of the solutions, the fast application system was used. Three parallel rectangular tubes (100 × 100 μm) were positioned 40–50 μm above the recorded cell. The movement of the tubes was controlled by a computer-driven fast exchange system (SF 77A Perfusion Fast-Step, Warner, USA) allowing a 10–90% solution exchange in 3–5 ms, as measured by open electrode controls (1/10 external solution/water). Cells with low input resistance (<150 MOhm) and a rapid run-down (>30% with repetitive application) were excluded from analysis.
(§5) Electrophysiological recordings were performed using PatchMaster (HEKA Electronic, Germany) software.
(§6) The fractional electrical distance from the external side of the membrane (δ) at which bound NFA blocked the current was calculated using the Woodhull equation: IC50(V)=IC50(0) exp (−δFV/RT), where IC50(V) is IC50 at the given membrane potential, IC50(0) – at 0 mV, V – membrane potential and F, R, T have their usual meanings. δ was determined from a plot of IC50 values against membrane potential.

[3] = target: T2, α1β GlyR (Homo sapiens, UniProt P23415+P48167); assay: Whole-cell patch-clamp of glycine-induced currents, heteromeric α1β GlyR expressed in CHO cells; type: cell-based; conditions: PTX 20 μM; glycine 30 μM; Vhold −30 mV
T2 construct: expressed in transfected cells; host or cells: CHO cells
Description: as §1, §2, §3, §4, §5

[4] = target: T3, homomeric α1 GlyR (Homo sapiens, UniProt P23415); assay: Whole-cell patch-clamp of glycine-induced currents, α1 GlyR expressed in CHO cells; type: cell-based; conditions: PTX 20 μM; glycine 30 μM; Vhold −30 mV
T3 construct: expressed in transfected cells; host or cells: CHO cells
T3 sequence (P23415 29-449 isoform P23415-2 limits assumed): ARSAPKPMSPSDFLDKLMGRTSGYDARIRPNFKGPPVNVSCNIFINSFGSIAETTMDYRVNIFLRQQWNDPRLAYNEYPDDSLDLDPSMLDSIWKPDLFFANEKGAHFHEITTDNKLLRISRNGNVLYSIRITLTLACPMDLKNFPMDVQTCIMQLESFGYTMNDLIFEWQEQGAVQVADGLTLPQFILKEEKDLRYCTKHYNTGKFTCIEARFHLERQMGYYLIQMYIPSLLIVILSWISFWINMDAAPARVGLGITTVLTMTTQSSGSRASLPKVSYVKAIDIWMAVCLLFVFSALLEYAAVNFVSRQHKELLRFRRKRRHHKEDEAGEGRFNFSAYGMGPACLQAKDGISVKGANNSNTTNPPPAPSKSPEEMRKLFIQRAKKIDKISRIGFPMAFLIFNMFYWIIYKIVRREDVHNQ
Description: as §1, §2, §3, §4, §5, §6

[5] = target: T4, α2β GlyR (Homo sapiens, UniProt P23416+P48167); assay: Whole-cell patch-clamp of glycine-induced currents, heteromeric α2β GlyR expressed in CHO cells; type: cell-based; conditions: PTX 20 μM; glycine 30 μM; Vhold −30 mV
T4 construct: expressed in transfected cells; host or cells: CHO cells
Description: as §1, §2, §3, §4, §5

T4 sequence (P48167 23-497, one chain of several): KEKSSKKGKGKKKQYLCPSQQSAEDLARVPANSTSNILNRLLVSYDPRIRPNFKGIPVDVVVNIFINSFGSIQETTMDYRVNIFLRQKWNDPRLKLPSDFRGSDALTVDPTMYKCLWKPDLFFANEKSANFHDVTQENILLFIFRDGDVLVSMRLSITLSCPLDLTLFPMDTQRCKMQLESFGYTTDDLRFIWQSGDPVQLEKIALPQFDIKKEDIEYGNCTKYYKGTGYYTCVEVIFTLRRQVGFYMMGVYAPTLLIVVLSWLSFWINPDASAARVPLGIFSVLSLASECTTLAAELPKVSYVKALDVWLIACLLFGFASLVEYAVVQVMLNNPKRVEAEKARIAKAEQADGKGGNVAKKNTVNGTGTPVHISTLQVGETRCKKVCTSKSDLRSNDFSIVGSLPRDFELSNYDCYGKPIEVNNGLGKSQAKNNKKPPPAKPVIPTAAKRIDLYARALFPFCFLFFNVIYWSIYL
T2 sequence (P48167 23-497, one chain of several): as above

Compound	EC50 [1]	amplitude of current, % of the control [2]	current, % from the control [3]	amplitude of current, % of the control [4]	current, % from the control [5]
NCC(=O)O [glycine]	42 ± 2 µM				
picrotoxin [PTX]		3 ± 1%	75 ± 2%	27 ± 3%	41 ± 4%
